Assay results taken from patent US9326973B2, “Hepatitis C virus inhibitors” (priority 2012, dated 2016).

How the values were obtained:
[1] = test system: HCV replicon, genotype 1a L31V variant with leucine 31 changed to valine in the NS5A protein; assay type: cell-based, HCV genotype 1a; conditions: test compound titrated in combination with a fixed 200 nM compound N47; genotype 1a L31V replicon
[2] = test system: HCV replicon, genotype 1a Y93H variant with tyrosine 93 changed to histidine in the NS5A protein; assay type: cell-based, HCV genotype 1a; conditions: test compound titrated in combination with a fixed 200 nM compound N47; genotype 1a Y93H replicon
Procedure: Combinations can be examined for synergistic activity using a variety of putative NS5A-targeting compounds and a variety of test compounds. […] The test compound can be chosen from compounds exemplified below, which were prepared by methods known in the art, or from others disclosed in the literature.
Similarly, BMS-790052 can be tested singly and in combination with a fixed amount of compound N47 in the HCV replicon cell based assay consisting of the genotype 1a Y93H variant with tyrosine 93 changed to histidine in the NS5A protein.

COC(=O)N[C@H](C(=O)N1[C@@H]2C[C@@H]2C[C@H]1c1ncc(-c2ccc(C3C[C@H]3c3ccc(-c4cnc([C@@H]5C[C@H]6C[C@H]6N5C(=O)[C@@H](NC(=O)OC)C(C)C)[nH]4)cc3)cc2)[nH]1)C(C)C (some centres unmarked)
Fold-Synergistic G-1a (L31V) [1]: >10 Fold
Fold-Synergistic G-1a (Y93H) [2]: >10 Fold

COC(=O)NC(C(=O)N1[C@@H](C)CC[C@H]1C1=NCC(c2ccc(-c3cnc(-c4cnc([C@@H]5CC[C@H](C)N5C(=O)[C@@H](NC(=O)OC)[C@H]5C[C@@H](C)O[C@@H](C)C5)[nH]4)c4cccn34)cc2)N1)[C@H]1C[C@@H](C)O[C@@H](C)C1 (some centres unmarked)
Fold-Synergistic G-1a (L31V) [1]: >10 Fold
Fold-Synergistic G-1a (Y93H) [2]: >100 Fold

O=C(Nc1ccc(/C=C/c2ccc(NC(=O)[C@@H]3CCCN3C(=O)Cc3ccccc3)cc2)cc1)C1CCCN1C(=O)Cc1ccccc1 (some centres unmarked)
Fold-Synergistic G-1a (L31V) [1]: <10 Fold
Fold-Synergistic G-1a (Y93H) [2]: <10 Fold

COC(=O)N[C@H](C(=O)N1C[C@H](C)C[C@H]1c1ncc(-c2ccc(-c3ccc(-c4cnc([C@@H]5C[C@@H](C)CN5C(=O)[C@@H](NC(=O)OC)C(C)C)[nH]4)cc3)cc2)[nH]1)C(C)C
Fold-Synergistic G-1a (L31V) [1]: >100 Fold
Fold-Synergistic G-1a (Y93H) [2]: >100 Fold

O=C(Nc1ccc(/C=C/c2ccc(NC(=O)[C@@H]3CCCN3C(=O)Cc3cccnc3)nc2)cn1)C1CCCN1C(=O)Cc1cccnc1 (some centres unmarked)
Fold-Synergistic G-1a (L31V) [1]: <10 Fold
Fold-Synergistic G-1a (Y93H) [2]: <10 Fold

COC(=O)N[C@H](C(=O)N1CCC[C@H]1c1cn(-c2ccc(-c3ccc(-n4cnc([C@@H]5CCCN5C(=O)[C@@H](NC(=O)OC)C(C)C)c4)cc3)cc2)cn1)C(C)C
Fold-Synergistic G-1a (L31V) [1]: >10 Fold
Fold-Synergistic G-1a (Y93H) [2]: >10 Fold

COC(=O)NC(C(=O)N1[C@@H]2C[C@@H]2C[C@H]1c1nc2ccc(-c3ccc4cc(-c5ccc6nc([C@@H]7C[C@H]8C[C@H]8N7C(=O)[C@@H](NC(=O)OC)C(C)C)[nH]c6c5)ccc4c3)cc2[nH]1)C(C)C (some centres unmarked)
Fold-Synergistic G-1a (L31V) [1]: >10 Fold
Fold-Synergistic G-1a (Y93H) [2]: >10 Fold

COC(=O)N[C@@H](C)C(=O)N1[C@@H]2CC[C@@H](C2)[C@H]1c1nc(-c2ccc(-c3ccc(C4=CNC([C@@H]5[C@H]6CC[C@H](C6)N5C(=O)[C@H](C)NC(=O)OC)N4)cc3)cc2)c[nH]1 (some centres unmarked)
Fold-Synergistic G-1a (L31V) [1]: >10 Fold
Fold-Synergistic G-1a (Y93H) [2]: <10 Fold

COC(=O)N[C@H](C(=O)N1CCC[C@H]1C1=C(c2ccc(C#Cc3ccc4[nH]c([C@@H]5CCCN5C(=O)[C@@H](NC(=O)OC)C(C)C)nc4c3)cc2)NCN1)C(C)C
Fold-Synergistic G-1a (L31V) [1]: <10 Fold
Fold-Synergistic G-1a (Y93H) [2]: >10 Fold

CN(C)[C@@H](C(=O)N1CCCC1c1cnc(-c2ccc3nc([C@@H]4CCCN4C(=O)[C@@H](c4ccccc4)N(C)C)[nH]c3c2)o1)c1ccccc1 (some centres unmarked)
Fold-Synergistic G-1a (L31V) [1]: <10 Fold
Fold-Synergistic G-1a (Y93H) [2]: <10 Fold

COC(=O)NC(C(=O)N1[C@@H]2C[C@@H]2C[C@H]1c1ncc(-c2cccc(-c3ccc4cc(-c5cnc([C@H]6C[C@@H]7C[C@@H]7N6C(=O)[C@@H](NC(=O)OC)C(C)C)[nH]5)ccc4c3)c2)[nH]1)C(C)C (some centres unmarked)
Fold-Synergistic G-1a (L31V) [1]: <10 Fold
Fold-Synergistic G-1a (Y93H) [2]: >10 Fold

COC(=O)N[C@@H](C(=O)N1CCC[C@H]1c1ncc(-c2ccc(-c3ccc(-c4cnc([C@@H]5CCCN5C(=O)[C@H](NC(=O)OC)c5ccccc5)[nH]4)cc3)cc2)[nH]1)c1ccccc1
Fold-Synergistic G-1a (L31V) [1]: <10 Fold

COC(=O)N[C@@H](C(=O)N1CCCC1c1ncc(C#CC#Cc2cnc([C@@H]3CCCN3C(=O)[C@H](NC(=O)OC)c3ccccc3)[nH]2)[nH]1)c1ccccc1 (some centres unmarked)
Fold-Synergistic G-1a (L31V) [1]: <10 Fold
Fold-Synergistic G-1a (Y93H) [2]: <10 Fold

COC(=O)N[C@H](C(=O)N1[C@@H]2C[C@@H]2C[C@H]1C(=O)Nc1ccc(C23CC4C5CC6(c7ccc(NC(=O)[C@@H]8C[C@H]9C[C@H]9N8C(=O)[C@@H](NC(=O)OC)C(C)C)cc7)CC4C(C2)C(C6)C5C3)cc1)C(C)C
Fold-Synergistic G-1a (L31V) [1]: <10 Fold
Fold-Synergistic G-1a (Y93H) [2]: <10 Fold

COC(=O)N[C@H](C(=O)N1C(c2nc3ccc4cc(C#Cc5ccc6c(ccc7nc([C@@H]8CC9CC9N8C(=O)[C@@H](NC(=O)OC)C(C)C)[nH]c76)c5)ccc4c3[nH]2)C[C@H]2C[C@H]21)C(C)C (some centres unmarked)
Fold-Synergistic G-1a (L31V) [1]: <10 Fold
Fold-Synergistic G-1a (Y93H) [2]: >100 Fold
